According to ChEMBL document CHEMBL5108016, “Design, synthesis and neurite outgrowth activity of novel ganglioside GM1 derivatives by remodeling of the fatty acid moiety” (Eur J Med Chem, 2022):
Active and inactive are the calls of the source. The rule behind the calls is not given here.

What was measured:
[1] = Cytotoxicity against mouse Neuro2a cells assessed as inhibition of cell growth incubated for 24 hrs by MTT assay; type: toxicity, cell-based, N2a
N2a [2] = assay: Induction of neurite outgrowth in mouse Neuro2a cells assessed as increase in GAP43 protein expression at 25 uM incubated for 24 hrs by immunoblotting analysis; type: functional, cell-based
Cortical neurone [3] = assay: Induction of neurite outgrowth in C57BL/6 mouse Primary cortical neuron assessed as increase in total neurite length at 25 uM incubated for 24 hrs (reference value: 58.3 +/- 8.68 […]); type: functional
Cortical neurone [4] = assay: Induction of neurite outgrowth in C57BL/6 mouse Primary cortical neuron assessed as change in neurite number per cell at 25 uM incubated for 24 hrs; type: functional, cell-based
N2a [5] = assay: Upregulation of LSS gene expression in mouse Neuro2a cells by STRING analysis; type: functional, cell-based
N2a [6] = assay: Upregulation of HMGCS1 gene expression in mouse Neuro2a cells by STRING analysis; type: functional, cell-based
N2a [7] = assay: Upregulation of MVD gene expression in mouse Neuro2a cells by STRING analysis; type: functional, cell-based
N2a [8] = assay: Upregulation of NSDHL gene expression in mouse Neuro2a cells by STRING analysis; type: functional, cell-based
N2a [9] = assay: Upregulation of FDFT1 gene expression in mouse Neuro2a cells by STRING analysis; type: functional, cell-based
N2a [10] = assay: Upregulation of ACAT2 gene expression in mouse Neuro2a cells by STRING analysis; type: functional, cell-based
N2a [11] = assay: Upregulation of FDPS gene expression in mouse Neuro2a cells by STRING analysis; type: functional, cell-based
N2a [12] = assay: Upregulation of CYP51 gene expression in mouse Neuro2a cells by STRING analysis; type: functional, cell-based
N2a [13] = assay: Upregulation of SREBP2 gene expression in mouse Neuro2a cells by STRING analysis; type: functional, cell-based
N2a [14] = assay: Upregulation of SREBP2 mRNA expression in mouse Neuro2a cells by qRT-PCR analysis; type: functional, cell-based
N2a [15] = assay: Upregulation of FDF1 mRNA expression in mouse Neuro2a cells by qRT-PCR analysis; type: functional, cell-based
N2a [16] = assay: Upregulation of DHCR7 mRNA expression in mouse Neuro2a cells by qRT-PCR analysis; type: functional, cell-based
N2a [17] = assay: Upregulation of CYP51 mRNA expression in mouse Neuro2a cells by qRT-PCR analysis; type: functional, cell-based
N2a [18] = assay: Upregulation of MVK mRNA expression in mouse Neuro2a cells by qRT-PCR analysis; type: functional, cell-based
N2a [19] = assay: Upregulation of HMGCS mRNA expression in mouse Neuro2a cells by qRT-PCR analysis; type: functional, cell-based
N2a [20] = assay: Upregulation of HMGCR mRNA expression in mouse Neuro2a cells by qRT-PCR analysis; type: functional, cell-based
N2a [21] = assay: Upregulation of FDPS mRNA expression in mouse Neuro2a cells by qRT-PCR analysis; type: functional, cell-based
N2a [22] = assay: Upregulation of NSDHL mRNA expression in mouse Neuro2a cells by qRT-PCR analysis; type: functional, cell-based
N2a [23] = assay: Upregulation of MVD mRNA expression in mouse Neuro2a cells by qRT-PCR analysis; type: functional, cell-based
N2a [24] = assay: Upregulation of LSS mRNA expression in mouse Neuro2a cells by qRT-PCR analysis; type: functional, cell-based
N2a [25] = assay: Upregulation of ID11 mRNA expression in mouse Neuro2a cells by qRT-PCR analysis; type: functional, cell-based
N2a [26] = assay: Upregulation of SQLE mRNA expression in mouse Neuro2a cells by qRT-PCR analysis; type: functional, cell-based
N2a [27] = assay: Upregulation of PMVK mRNA expression in mouse Neuro2a cells by qRT-PCR analysis; type: functional, cell-based
N2a [28] = assay: Upregulation of DHCR7 protein expression in mouse Neuro2a cells by parallel reaction monitoring analysis; type: functional, cell-based
N2a [29] = assay: Upregulation of HMGCR protein expression in mouse Neuro2a cells by parallel reaction monitoring analysis; type: functional, cell-based
N2a [30] = assay: Upregulation of NSDHL protein expression in mouse Neuro2a cells by parallel reaction monitoring analysis; type: functional, cell-based
N2a [31] = assay: Upregulation of CYP51 protein expression in mouse Neuro2a cells by parallel reaction monitoring analysis; type: functional, cell-based
N2a [32] = assay: Upregulation of FDPS protein expression in mouse Neuro2a cells by parallel reaction monitoring analysis; type: functional, cell-based
N2a [33] = assay: Upregulation of LSS protein expression in mouse Neuro2a cells by parallel reaction monitoring analysis; type: functional, cell-based
N2a [34] = assay: Upregulation of HMGCS1 protein expression in mouse Neuro2a cells by parallel reaction monitoring analysis; type: functional, cell-based
N2a [35] = assay: Induction of cholesterol biosynthesis in mouse Neuro2a cells assessed as increase in total cholesterol level; type: functional, cell-based
N2a [36] = assay: Induction of cholesterol biosynthesis in mouse Neuro2a cells assessed as increase in total cholesteryl level; type: functional, cell-based
[37] = molecular target: T1, Sterol regulatory element-binding protein 2 (Mus musculus) (UniProt Q3U1N2); assay: Activation of SREBP2 in mouse Neuro2a cells assessed as increase in mTOR protein expression by immunoblot analysis; type: cell-based; settings: filed as activator
T1 sequence (whole entry): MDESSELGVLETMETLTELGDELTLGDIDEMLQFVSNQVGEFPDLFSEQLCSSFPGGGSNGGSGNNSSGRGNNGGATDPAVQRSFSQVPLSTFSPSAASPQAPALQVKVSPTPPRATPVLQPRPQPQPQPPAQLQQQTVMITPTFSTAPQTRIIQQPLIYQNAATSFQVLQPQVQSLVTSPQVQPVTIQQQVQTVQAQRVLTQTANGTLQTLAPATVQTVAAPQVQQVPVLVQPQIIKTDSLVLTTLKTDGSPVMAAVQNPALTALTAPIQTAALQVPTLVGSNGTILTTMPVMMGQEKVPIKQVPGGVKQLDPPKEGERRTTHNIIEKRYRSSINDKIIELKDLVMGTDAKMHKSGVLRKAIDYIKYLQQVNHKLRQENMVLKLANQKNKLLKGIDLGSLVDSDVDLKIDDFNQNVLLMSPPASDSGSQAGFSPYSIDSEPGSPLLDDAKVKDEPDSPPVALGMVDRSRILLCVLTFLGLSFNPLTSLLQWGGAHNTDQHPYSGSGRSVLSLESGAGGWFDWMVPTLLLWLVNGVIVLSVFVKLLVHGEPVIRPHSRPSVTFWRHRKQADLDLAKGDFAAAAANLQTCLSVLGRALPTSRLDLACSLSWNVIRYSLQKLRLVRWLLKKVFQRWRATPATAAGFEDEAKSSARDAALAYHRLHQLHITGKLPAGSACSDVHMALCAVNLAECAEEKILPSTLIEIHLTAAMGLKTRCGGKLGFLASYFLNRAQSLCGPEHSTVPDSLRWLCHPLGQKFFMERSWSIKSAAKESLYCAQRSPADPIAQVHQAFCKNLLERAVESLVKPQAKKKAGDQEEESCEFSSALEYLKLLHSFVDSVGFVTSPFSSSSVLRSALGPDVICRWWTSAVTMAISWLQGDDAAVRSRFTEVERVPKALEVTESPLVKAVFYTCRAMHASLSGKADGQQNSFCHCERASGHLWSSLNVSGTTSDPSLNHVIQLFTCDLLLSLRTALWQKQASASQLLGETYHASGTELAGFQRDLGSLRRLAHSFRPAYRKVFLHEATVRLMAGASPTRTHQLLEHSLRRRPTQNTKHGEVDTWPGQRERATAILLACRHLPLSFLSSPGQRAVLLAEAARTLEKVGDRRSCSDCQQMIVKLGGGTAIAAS

[38] = molecular target: T1, Sterol regulatory element-binding protein 2 (Mus musculus); assay: Activation of SREBP2 in mouse Neuro2a cells assessed as increase in ERBB4 protein expression by immunoblot analysis; type: cell-based; settings: filed as activator
[39] = molecular target: T1, Sterol regulatory element-binding protein 2 (Mus musculus); assay: Activation of SREBP2 in mouse Neuro2a cells assessed as increase in phosphorylated ERBB4 protein expression by immunoblot analysis; type: cell-based; settings: filed as activator
N2a [40] = assay: Internalization of ERBB4 in mouse Neuro2a cells assessed as retention of ERBB4 level in lipids raft of cells by immunoblot analysis; type: functional, cell-based
N2a [41] = assay: Upregulation of phosphorylated TrkA expression in mouse Neuro2a cells by immunoblot analysis; type: functional, cell-based

In the case of CCCCCCCC/C=C/CCCCCCCC(=O)N[C@@H](CO[C@@H]1O[C@H](CO)[C@@H](O[C@@H]2O[C@H](CO)[C@H](O[C@@H]3O[C@H](CO)[C@H](O)[C@H](O[C@@H]4O[C@H](CO)[C@H](O)[C@H](O)[C@H]4O)[C@H]3NC(C)=O)[C@H](O[C@]3(C(=O)O)C[C@H](O)[C@@H](NC(C)=O)[C@@H]([C@@H](O)[C@H](O)CO)O3)[C@H]2O)[C@H](O)[C@H]1O)[C@H](O)/C=C/CCCCCCCCCCCCCCC, the IC50 at 24 h [1] was over 200 µM and the Activity (N2a [2]) was “Active”.

In the case of CCCCCCCCCCCCC/C=C/[C@@H](O)[C@H](CO[C@@H]1O[C@H](CO)[C@@H](O[C@@H]2O[C@H](CO)[C@H](O[C@@H]3O[C@H](CO)[C@H](O)[C@H](O[C@@H]4O[C@H](CO)[C@H](O)[C@H](O)[C@H]4O)[C@H]3NC(C)=O)[C@H](O[C@]3(C(=O)O)C[C@H](O)[C@@H](NC(C)=O)[C@@H]([C@@H](O)[C@H](O)CO)O3)[C@H]2O)[C@H](O)[C@H]1O)NC(=O)CCCCCCCCCCCCCCCCC, the IC50 at 24 h [1] was over 200 µM, the Activity (N2a [2]) was “Active” and the Activity (Cortical neurone [3]) was 80.1 um. The Activity (Cortical neurone [4]) was “Active”, the Activity (N2a [5]) was “Active” and the Activity (N2a [6]) was “Active”. The Activity (N2a [7]) was “Active”, the Activity (N2a [8]) was “Active” and the Activity (N2a [9]) was “Active”. The Activity (N2a [10]) was “Active”, the Activity (N2a [11]) was “Active” and the Activity (N2a [12]) was “Active”. The Activity (N2a [13]) was “Active”, the Activity (N2a [14]) was “Active” and the Activity (N2a [15]) was “Active”. The Activity (N2a [16]) was “Active”, the Activity (N2a [17]) was “Active” and the Activity (N2a [18]) was “Active”. For the same molecule, the Activity (N2a [19]) was “Active”, the Activity (N2a [20]) was “Active” and the Activity (N2a [21]) was “Active”. The Activity (N2a [22]) was “Active”, the Activity (N2a [23]) was “Active” and the Activity (N2a [24]) was “Active”. For the same molecule, the Activity (N2a [25]) was “Active”, the Activity (N2a [26]) was “Active” and the Activity (N2a [27]) was “Active”. For the same molecule, the Activity (N2a [28]) was “Active”, the Activity (N2a [29]) was “Active” and the Activity (N2a [30]) was “Active”. For the same molecule, the Activity (N2a [31]) was “Active”, the Activity (N2a [32]) was “Active” and the Activity (N2a [33]) was “Active”. For the same molecule, the Activity (N2a [34]) was “Active”, the Activity (N2a [35]) was “Active” and the Activity (N2a [36]) was “Active”. For the same molecule, the Activity [37] was “Active”, the Activity [38] was “Active” and the Activity [39] was “Active”. For the same molecule, the Activity (N2a [40]) was “Active” and the Activity (N2a [41]) was “Active”.

For CCCC/C=C\CCCCCCCC(=O)N[C@@H](CO[C@@H]1O[C@H](CO)[C@@H](O[C@@H]2O[C@H](CO)[C@H](O[C@@H]3O[C@H](CO)[C@H](O)[C@H](O[C@@H]4O[C@H](CO)[C@H](O)[C@H](O)[C@H]4O)[C@H]3NC(C)=O)[C@H](O[C@]3(C(=O)O)C[C@H](O)[C@@H](NC(C)=O)[C@@H]([C@@H](O)[C@H](O)CO)O3)[C@H]2O)[C@H](O)[C@H]1O)[C@H](O)/C=C/CCCCCCCCCCCCC, the IC50 at 24 h [1] was under 25 µM.

Work on CCCCCC/C=C\CCCC(=O)N[C@@H](CO[C@@H]1O[C@H](CO)[C@@H](O[C@@H]2O[C@H](CO)[C@H](O[C@@H]3O[C@H](CO)[C@H](O)[C@H](O[C@@H]4O[C@H](CO)[C@H](O)[C@H](O)[C@H]4O)[C@H]3NC(C)=O)[C@H](O[C@]3(C(=O)O)C[C@H](O)[C@@H](NC(C)=O)[C@@H]([C@@H](O)[C@H](O)CO)O3)[C@H]2O)[C@H](O)[C@H]1O)[C@H](O)/C=C/CCCCCCCCCCCCC yielded an IC50 at 24 h [1] of under 25 µM.
